Assays:
Format in all cases: in vivo
beet = assay: Test Example 5: effect on crop by foliage application, plastic box (symbol f); settings: 320 g/ha, 3 weeks after application
Outline: (§1)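 Soil: sterilized diluvial. Container: plastic box, 21 × 13 cm, 7 cm deep. Sowing: spot-like, ~1.5 cm cover. Growth: greenhouse, 25° C. to 30° C.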

[1] = tested on: Echinochloa crus-galli var. crus-galli; assay: Test Example 5: herbicidal effect by foliage application, plastic box (symbol H); settings: 320 g/ha, 3 weeks after application
Outline: (§2)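 Emulsion formulation, diluted with water to the intended rate, was applied uniformly to leaves by small sprayer. Recipients were 14-day greenhouse-grown seedlings (25° C. to 30° C.). Assessment followed at 3 weeks.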

Veronica persica = assay: Test Example 5: herbicidal effect by foliage application, plastic box (symbol R); settings: 320 g/ha, 3 weeks after application
Outline: as §2

Chenopodium album = assay: Test Example 5: herbicidal effect by foliage application, plastic box (symbol O); settings: 320 g/ha, 3 weeks after application
Outline: as §2

Avena fatua [2] = assay: Test Example 4: herbicidal effect by soil treatment (symbol I); settings: application herbicide amount 320 g/ha
Outline: (§3)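 Seeds were sown in sterilized diluvial soil, covered with about 1.5 cm of soil, and the soil surface was sprayed with a water-diluted emulsion of the compound at a predetermined rate. Plants grew in a greenhouse at 25° C. to 30° C.; effects were scored visually 3 weeks after application.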

Avena fatua [3] = assay: Test Example 5: herbicidal effect by foliage application, plastic box (symbol I); settings: 320 g/ha, 3 weeks after application
Outline: as §2

Apera spica-venti [4] = assay: Test Example 5: herbicidal effect by foliage application, plastic box (symbol L); settings: 320 g/ha, 3 weeks after application
Outline: as §2

Galium spurium [5] = assay: Test Example 5: herbicidal effect by foliage application, plastic box (symbol Q); settings: 320 g/ha, 3 weeks after application
Outline: as §2

Leptochloa chinensis = assay: Test Example 3: herbicidal effect by foliage application, Wagner pot (symbol D); settings: application herbicide amount 320 g/ha
Outline: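 Herbicidal activity was rated three weeks after a foliar spray of diluted emulsion concentrate, applied at a predetermined dose to plants grown for 14 days from seed in waterlogged alluvial soil within a 25–30 °C greenhouse.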

Setaria viridis = assay: Test Example 4: herbicidal effect by soil treatment (symbol G); settings: application herbicide amount 320 g/ha
Outline: as §3

soybean = assay: Test Example 4: effect on crop by soil treatment (symbol d); settings: application herbicide amount 320 g/ha
Outline: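 Plants grew in a 25° C. to 30° C. greenhouse after spot-sowing of seeds, including beet, rapeseed, wheat and rice, into sterilized diluvial soil under roughly 1.5 cm of cover soil.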

rapeseed = assay: Test Example 5: effect on crop by foliage application, plastic box (symbol g); settings: 320 g/ha, 3 weeks after application
Outline: as §1

Abutilon theophrasti = assay: Test Example 5: herbicidal effect by foliage application, plastic box (symbol M); settings: 320 g/ha, 3 weeks after application
Outline: as §2

Stellaria media = assay: Test Example 5: herbicidal effect by foliage application, plastic box (symbol P); settings: 320 g/ha, 3 weeks after application
Outline: as §2

Scirpus juncoides = assay: Test Example 1: herbicidal activity, application before weed generation in submerged conditions (symbol B); settings: application herbicide amount 320 g/ha
Outline: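 Greenhouse growth at 25–30 °C lasted 3 weeks after treatment, when each weed was graded 0–5 by herbicidal ratio. Treatment was a diluted emulsion applied to the water surface of 4 cm-submerged alluvial soil on the sowing day.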

Galium spurium [6] = assay: Test Example 4: herbicidal effect by soil treatment (symbol Q); settings: application herbicide amount 320 g/ha
Outline: as §3

Digitaria ciliaris = assay: Test Example 5: herbicidal effect by foliage application, plastic box (symbol F); settings: 320 g/ha, 3 weeks after application
Outline: as §2

Amaranthus retroflexus = assay: Test Example 4: herbicidal effect by soil treatment (symbol N); settings: application herbicide amount 320 g/ha
Outline: as §3

Apera spica-venti [7] = assay: Test Example 4: herbicidal effect by soil treatment (symbol L); settings: application herbicide amount 320 g/ha
Outline: as §3

In the case of `CON=C(C)CC1CC(OC(=O)N2CCCCC2)=C(c2c(C)cc(C)cc2OC)C1=O` (centres unmarked) [6-111], the “f: beet, effect on crop (criteria of Test Example 1)” value (shortened to “f: beet, effect on crop”) (beet) is reported as 0 (Herbicidal ratio of 5% or lower (almost no effect)), the “H: Echinochloa crus-galli var. crus-galli, herbicidal effect (criteria of Test Example 1)” value [1] is reported as 5 (Herbicidal ratio of 90% or more (almost completely withered)) and the “R: Veronica persica, herbicidal effect (criteria of Test Example 1)” value (“R: Veronica persica, herbicidal effect” for short) (Veronica persica) is reported as 2 (Herbicidal ratio of 20% or higher and lower than 40%). For the same compound, the “O: Chenopodium album, herbicidal effect (criteria of Test Example 1)” value (shortened to “O: Chenopodium album, herbicidal effect”) (Chenopodium album) was 0 (Herbicidal ratio of 5% or lower (almost no effect)), the “Herbicidal effect grade, I: Avena fatua” value (Avena fatua [2]) was 0 (Herbicidal ratio of 5% or lower (almost no effect)) and the “I: Avena fatua, herbicidal effect (criteria of Test Example 1)” value (Avena fatua [3]) was 5 (Herbicidal ratio of 90% or more (almost completely withered)). For the same compound, the “L: Apera spica-venti, herbicidal effect (criteria of Test Example 1)” value (Apera spica-venti [4]) was 5 (Herbicidal ratio of 90% or more (almost completely withered)), the “Q: Galium spurium, herbicidal effect (criteria of Test Example 1)” value (Galium spurium [5]) was 0 (Herbicidal ratio of 5% or lower (almost no effect)) and the “herbicidal effect on D (Leptochloa chinensis), grade 0-5” value (shortened to “herbicidal effect on D”) (Leptochloa chinensis) was 5 (Herbicidal ratio of 90% or more (almost completely withered)). For the same compound, the “Herbicidal effect grade, G: Setaria viridis” value (“Herbicidal effect grade, G” for short) (Setaria viridis) was 0 (Herbicidal ratio of 5% or lower (almost no effect)), the “Effect on crop grade, d: soybean” value (soybean) was 0 (Herbicidal ratio of 5% or lower (almost no effect)) and the “g: rapeseed, effect on crop (criteria of Test Example 1)” value (“g: rapeseed, effect on crop” for short) (rapeseed) was 4 (Herbicidal ratio of 70% or higher and lower than 90%). For the same compound, the “M: Abutilon theophrasti, herbicidal effect (criteria of Test Example 1)” value (“M: Abutilon theophrasti” below) (Abutilon theophrasti) was 2 (Herbicidal ratio of 20% or higher and lower than 40%), the “P: Stellaria media, herbicidal effect (criteria of Test Example 1)” value (from here on “P: Stellaria media, herbicidal effect”) (Stellaria media) was 1 (Herbicidal ratio of 5% or higher and lower than 20%) and the “Herbicidal effect grade, B: Scirpus juncoides” value (from here on “Herbicidal effect grade, B”) (Scirpus juncoides) was 5 (Herbicidal ratio of 90% or more (almost completely withered)). The “Herbicidal effect grade, Q: Galium spurium” value (“Herbicidal effect grade, Q” for short) (Galium spurium [6]) was 0 (Herbicidal ratio of 5% or lower (almost no effect)), the “F: Digitaria ciliaris, herbicidal effect (criteria of Test Example 1)” value (shortened to “F: Digitaria ciliaris, herbicidal effect”) (Digitaria ciliaris) was 5 (Herbicidal ratio of 90% or more (almost completely withered)) and the “Herbicidal effect grade, N: Amaranthus retroflexus” value (from here on “Herbicidal effect grade, N”) (Amaranthus retroflexus) was 0 (Herbicidal ratio of 5% or lower (almost no effect)).
For `CON=C(C)CC1CC(OS(=O)(=O)N(C)C)=C(c2c(C)cc(C)cc2OC)C1=O` (centres unmarked) [6-095], the “f: beet, effect on crop” value (beet) was 0 (Herbicidal ratio of 5% or lower (almost no effect)), the “H: Echinochloa crus-galli var. crus-galli, herbicidal effect (criteria of Test Example 1)” value [1] was 5 (Herbicidal ratio of 90% or more (almost completely withered)) and the “R: Veronica persica, herbicidal effect” value (Veronica persica) was 3 (Herbicidal ratio of 40% or higher and lower than 70%). The “O: Chenopodium album, herbicidal effect” value (Chenopodium album) was 5 (Herbicidal ratio of 90% or more (almost completely withered)), the “Herbicidal effect grade, I: Avena fatua” value (Avena fatua [2]) was 3 (Herbicidal ratio of 40% or higher and lower than 70%) and the “I: Avena fatua, herbicidal effect (criteria of Test Example 1)” value (Avena fatua [3]) was 5 (Herbicidal ratio of 90% or more (almost completely withered)). For the same compound, the “L: Apera spica-venti, herbicidal effect (criteria of Test Example 1)” value (Apera spica-venti [4]) was 5 (Herbicidal ratio of 90% or more (almost completely withered)), the “Q: Galium spurium, herbicidal effect (criteria of Test Example 1)” value (Galium spurium [5]) was 0 (Herbicidal ratio of 5% or lower (almost no effect)) and the “herbicidal effect on D” value (Leptochloa chinensis) was 5 (Herbicidal ratio of 90% or more (almost completely withered)). For the same compound, the “Herbicidal effect grade, G” value (Setaria viridis) was 5 (Herbicidal ratio of 90% or more (almost completely withered)), the “Effect on crop grade, d: soybean” value (soybean) was 0 (Herbicidal ratio of 5% or lower (almost no effect)) and the “g: rapeseed, effect on crop” value (rapeseed) was 4 (Herbicidal ratio of 70% or higher and lower than 90%). The “M: Abutilon theophrasti” value (Abutilon theophrasti) was 4 (Herbicidal ratio of 70% or higher and lower than 90%), the “P: Stellaria media, herbicidal effect” value (Stellaria media) was 1 (Herbicidal ratio of 5% or higher and lower than 20%) and the “Herbicidal effect grade, B” value (Scirpus juncoides) was 4 (Herbicidal ratio of 70% or higher and lower than 90%). The “Herbicidal effect grade, Q” value (Galium spurium [6]) was 0 (Herbicidal ratio of 5% or lower (almost no effect)), the “F: Digitaria ciliaris, herbicidal effect” value (Digitaria ciliaris) was 5 (Herbicidal ratio of 90% or more (almost completely withered)) and the “Herbicidal effect grade, N” value (Amaranthus retroflexus) was 1 (Herbicidal ratio of 5% or higher and lower than 20%).
With `CON=C(C)C(C)C1CC(O)=C(c2c(C)cc(Br)cc2OC)C1=O` (centres unmarked) [6-113] the “f: beet, effect on crop” value (beet) was 0 (Herbicidal ratio of 5% or lower (almost no effect)), the “H: Echinochloa crus-galli var. crus-galli, herbicidal effect (criteria of Test Example 1)” value [1] was 5 (Herbicidal ratio of 90% or more (almost completely withered)) and the “R: Veronica persica, herbicidal effect” value (Veronica persica) was 0 (Herbicidal ratio of 5% or lower (almost no effect)). For the same compound, the “O: Chenopodium album, herbicidal effect” value (Chenopodium album) was 2 (Herbicidal ratio of 20% or higher and lower than 40%), the “Herbicidal effect grade, I: Avena fatua” value (Avena fatua [2]) was 0 (Herbicidal ratio of 5% or lower (almost no effect)) and the “I: Avena fatua, herbicidal effect (criteria of Test Example 1)” value (Avena fatua [3]) was 5 (Herbicidal ratio of 90% or more (almost completely withered)). For the same compound, the “L: Apera spica-venti, herbicidal effect (criteria of Test Example 1)” value (Apera spica-venti [4]) was 5 (Herbicidal ratio of 90% or more (almost completely withered)), the “Q: Galium spurium, herbicidal effect (criteria of Test Example 1)” value (Galium spurium [5]) was 0 (Herbicidal ratio of 5% or lower (almost no effect)) and the “herbicidal effect on D” value (Leptochloa chinensis) was 5 (Herbicidal ratio of 90% or more (almost completely withered)). For the same compound, the “Herbicidal effect grade, G” value (Setaria viridis) was 5 (Herbicidal ratio of 90% or more (almost completely withered)), the “Effect on crop grade, d: soybean” value (soybean) was 0 (Herbicidal ratio of 5% or lower (almost no effect)) and the “g: rapeseed, effect on crop” value (rapeseed) was 4 (Herbicidal ratio of 70% or higher and lower than 90%). For the same compound, the “M: Abutilon theophrasti” value (Abutilon theophrasti) was 0 (Herbicidal ratio of 5% or lower (almost no effect)), the “P: Stellaria media, herbicidal effect” value (Stellaria media) was 0 (Herbicidal ratio of 5% or lower (almost no effect)) and the “Herbicidal effect grade, B” value (Scirpus juncoides) was 0 (Herbicidal ratio of 5% or lower (almost no effect)). The “Herbicidal effect grade, Q” value (Galium spurium [6]) was 0 (Herbicidal ratio of 5% or lower (almost no effect)), the “F: Digitaria ciliaris, herbicidal effect” value (Digitaria ciliaris) was 5 (Herbicidal ratio of 90% or more (almost completely withered)) and the “Herbicidal effect grade, N” value (Amaranthus retroflexus) was 0 (Herbicidal ratio of 5% or lower (almost no effect)).
For `CON=C(C)CC1CC(OC(=O)SC(C)(C)C)=C(c2c(C)cc(-c3ccc(Cl)cc3)cc2C)C1=O` (centres unmarked) [6-082], the “f: beet, effect on crop” value (beet) was 0 (Herbicidal ratio of 5% or lower (almost no effect)), the “H: Echinochloa crus-galli var. crus-galli, herbicidal effect (criteria of Test Example 1)” value [1] was 5 (Herbicidal ratio of 90% or more (almost completely withered)) and the “R: Veronica persica, herbicidal effect” value (Veronica persica) was 4 (Herbicidal ratio of 70% or higher and lower than 90%). The “I: Avena fatua, herbicidal effect grade” value (Avena fatua [2]) was 3 (Herbicidal ratio of 40% or higher and lower than 70%), the “I: Avena fatua, herbicidal effect (criteria of Test Example 1)” value (Avena fatua [3]) was 5 (Herbicidal ratio of 90% or more (almost completely withered)) and the “L: Apera spica-venti, herbicidal effect (criteria of Test Example 1)” value (Apera spica-venti [4]) was 5 (Herbicidal ratio of 90% or more (almost completely withered)). The “Q: Galium spurium, herbicidal effect (criteria of Test Example 1)” value (Galium spurium [5]) was 4 (Herbicidal ratio of 70% or higher and lower than 90%), the “herbicidal effect on D” value (Leptochloa chinensis) was 5 (Herbicidal ratio of 90% or more (almost completely withered)) and the “G: Setaria viridis, herbicidal effect grade” value (Setaria viridis) was 5 (Herbicidal ratio of 90% or more (almost completely withered)). The “d: soybean, effect on crop grade” value (soybean) was 0 (Herbicidal ratio of 5% or lower (almost no effect)), the “g: rapeseed, effect on crop” value (rapeseed) was 4 (Herbicidal ratio of 70% or higher and lower than 90%) and the “M: Abutilon theophrasti” value (Abutilon theophrasti) was 4 (Herbicidal ratio of 70% or higher and lower than 90%). For the same compound, the “P: Stellaria media, herbicidal effect” value (Stellaria media) was 1 (Herbicidal ratio of 5% or higher and lower than 20%), the “Herbicidal effect grade, B” value (Scirpus juncoides) was 4 (Herbicidal ratio of 70% or higher and lower than 90%) and the “Q: Galium spurium, herbicidal effect grade” value (Galium spurium [6]) was 0 (Herbicidal ratio of 5% or lower (almost no effect)). The “F: Digitaria ciliaris, herbicidal effect” value (Digitaria ciliaris) was 5 (Herbicidal ratio of 90% or more (almost completely withered)) and the “L: Apera spica-venti, herbicidal effect grade” value (Apera spica-venti [7]) was 5 (Herbicidal ratio of 90% or more (almost completely withered)).
